The source of these data is US20040034003A1, “7-Hydroxy-16alpha-fluoro-5-androsten-17-ones and 7-hydroxy-16alpha-fluoro-5-androstan-17-ones and derivatives thereof” (priority 2002, published 2004).

“And” between values parts separate entries of the source, which are not always exact repeats. Identical values can stand only once.

The subject of the assay is TPA-Induced DNA Synthesis in Mouse Epidermis. The assay is described as follows: TPA-induced DNA synthesis in mouse epidermis: [3H]thymidine incorporation and epidermal DNA content of a 2x2 cm2 skin section. The following applies: for μg DNA / corrected cpm / cpm/μg DNA / cpm: individual mouse. The class given is in vivo. As to the method: Epidermal hypeplasia is determined by measuring the stimulation in [^3H] thymidine incorporation as well as epidermal DNA content of a 2×2 cm^2 section of skin twenty hours after TPA application.
In prior experiments, 16α-fluoro-5-androsten-17-one was administered in escalating doses by the oral subcutaneous, intraperitoneal, and buccal routes of administration, and the effect on TPA-stimulated epidermal [^3H] thymidine incorporation and epidermal DNA content was determined.
In this experiment, the effect of treating mice subcutaneously (s.c.) with suspensions of 7α-hydroxy-16α-flouro-5-androsten-17-one and suspensions of 16aflouro-5-androsten-17-one were investigated.
Variousl6α-flouro-5-androsten-17 one suspensions (Q) were prepared. The vehicle was 95% saline (0.9% NaCl) and 5% Emulphor. For the 5 mg/kg s.c. suspension, 25.3 mg was suspended in 10 mL of Emulphor-saline. The other suspensions were made by diluting the 5 mg/kg suspension. For the 2.5 mg/kg suspension, 1 mL of 5mg/kg s.c. suspension was diluted to a final volume of 2mL, for the 1 m/kg suspension 1 mL of the 5 mg/kg suspension was made to a total of 5 mL, while for the 0.125 mg/kg suspension, 0.5 mL of the 5 mg/kg suspension was made to a final volume of 20 mL. Magnetic stir bars were added to the suspensions which were kept on a magnetic stirrer.
7α-hydroxy-16α-flouro-5-androsten-17-one was prepared as described hereinabove. For the 5 mg/kg s.c. suspension, 16.3 mg was suspended in 6.5 mL of Emulphor-saline. The other suspensions were made by diluting the 5 mg/kg suspension. For the 2.5 mg/kg, 1 mL of 5 mg/kg suspension was diluted to a final volume of 2 mL, for the 1 mg/kg suspension 1 mL of the 5 mg/kg suspension was made to total 5 mL, while for the 0.125 mg/kg suspension, 0.5 mL of the 5 mg/kg suspension was made up to final volume of 20 mL. Magnetic stir bars were added to the suspensions and the suspensions were kept on a magnetic stirrer.
Female CD-1 mice were obtained from Charles River Laboratories, Wilmington, Mass. at 44-46 days of age. The mice were housed two to three per cage in plastic shoebox cages on Alphacel bedding with 12 hours of alternating light and dark in the CAF Animal Facility, 6th floor, Pharmacy Building. The mice had ad libitum access-to Purina 5015 chow and acidified tap water (pH≦2.6). The mice were allowed to acclimate to the facility for one week prior to use in an experiment. Three days after obtaining the mice, the mice were shaved and weighed. Only those mice showing no hair regrowth were used in the experiment.
Four days after the mice were shaved, they were treated as follows:
The mice were sacrificed 20 hours after treatment by an overdose of CO2. Twenty minutes prior to sacrifice, the mice were injected with 60 μCi of [^3H]thymidine (Amersham Batch 297). The mice were treated with a depilatory to remove any residual hair. A 2×2 cm^2 piece of skin was excised, placed in ice water for 30 seconds, then in 55° C. water for 30 seconds, then ice water again for 30 seconds. The epidermis was scrapped off using a scalpel and the scrapings were placed into ice cold 0.4N TCA (trichloroacetic acid). The scrapings were homogenized using a Tekmar Tissumizer (80% power for 30 seconds). The homogenates were centrifuged for 20 minutes at 3,000×g. The precipitates were washed 3× with 0.2N TCA, and 2× with absolute ethanol. The DNA in each sample was hydrolyzed with 0.5N TCA for 30 minuts at 90°. The tubes were centrifuged for 20 minutes at 3000×g. A 0.2 mL aliquot of each hydrolysate was counted in a LKB Rackbeta scintillation counter using Scintiverse II BD as the counting medium. DNA content was determined by the Burton diphenylamine assay.
Various suspensions were prepared of 16α-fluoro-5-androsten-17-one as follows. The vehicle was 95% saline (0.9% NaCl) and 5% Emulphor. For the 5 mg/kg s.c. suspension, 27.8 mg was suspended in 11.4 mL of Emulphor-saline. The other suspensions were made by diluting the 5 mg/kg suspension. […]

The mark [1] stands for this setting: Example 4, 0.125 mg/kg s.c. 1 h before topical TPA 2 μg, 20 h, 0.125 mg/kg.
Setting [2] is: Example 4, 1 mg/kg s.c. 1 h before topical TPA 2 μg, 20 h, 1 mg/kg.
The mark [3] stands for this setting: Example 4, 2.5 mg/kg s.c. 1 h before topical TPA 2 μg, 20 h, 2.5 mg/kg.
The mark [4] stands for this setting: Example 4, 5 mg/kg s.c. 1 h before topical TPA 2 μg, 20 h.
Setting [5] is: Example 4, 5 mg/kg s.c. 1 h before topical TPA 2 μg, 20 h, 5 mg/kg.
The mark [6] stands for this setting: Example 5, 1 mg/kg s.c. 1 h before topical TPA 2 μg, 20 h, 1 mg/kg.
The mark [7] stands for this setting: Example 5, 1.75 mg/kg s.c. 1 h before topical TPA 2 μg, 20 h, 1.75 mg/kg.
Setting [8] is: Example 5, 2.5 mg/kg s.c. 1 h before topical TPA 2 μg, 20 h, 2.5 mg/kg.
Setting [9] is: Example 5, 3.75 mg/kg s.c. 1 h before topical TPA 2 μg, 20 h, 3.75 mg/kg.
The mark [10] stands for this setting: Example 5, 5 mg/kg s.c. 1 h before topical TPA 2 μg, 20 h, 5 mg/kg.

Take `C[C@]12CCCCC1=C[C@@H](O)[C@@H]1[C@@H]2CC[C@]2(C)C(=O)[C@H](F)C[C@@H]12` [7α-hydroxy-16α-fluoro-5-androsten-17-one, 16α-fluoro-7α-hydroxy-5-androsten-17-one]: the “μg DNA” value was 16.8 µg and 15.4 µg (Example 4, 0.125 mg/kg s.c. 1 h before topical TPA 2 μg, 20 h, Burton diphenylamine assay, 0.125 mg/kg); 14.1 µg and 13.1 µg under setting [2]; 12.0 µg and 11.3 µg under setting [3]; 11.9 µg under setting [4]. The “cpm/μg DNA (group average ±)” value reads like this: (Example 4, 0.125 mg/kg s.c. 1 h before topical TPA 2 μg, 20 h) 335.1 ± 64.4 cpm/μg DNA; (Example 4, 1 mg/kg s.c. 1 h before topical TPA 2 μg, 20 h) 245.5 ± 44.1 cpm/μg DNA; (Example 4, 2.5 mg/kg s.c. 1 h before topical TPA 2 μg, 20 h) 350.2 ± 32.5 cpm/μg DNA; under setting [4], 360.3 ± 9.3 cpm/μg DNA. Further, the corrected cpm is 6,394.0 cpm and 4,458.0 cpm under setting [1]; 3,021.0 cpm and 3,623.0 cpm under setting [2]; 4,478.0 cpm and 3,698.0 cpm under setting [3]; 4,366.0 cpm and 4,209.0 cpm under setting [5]. Moreover, the “cpm/μg DNA” value runs as follows: under setting [1], 380.6 cpm/μg DNA and 289.5 cpm/μg DNA; under setting [2], 214.3 cpm/μg DNA and 276.6 cpm/μg DNA; under setting [3], 373.2 cpm/μg DNA and 327.3 cpm/μg DNA; under setting [5], 366.9 cpm/μg DNA and 353.7 cpm/μg DNA. For the same compound, the cpm reads like this: (Example 4, 0.125 mg/kg s.c. 1 h before topical TPA 2 μg, female CD-1 mice, 20 h after treatment, 0.125 mg/kg) 6,419.0 cpm and 4,483.0 cpm; under setting [2], 3,046.0 cpm and 3,648.0 cpm; under setting [3], 4,503.0 cpm and 3,723.0. cpm; under setting [5], 4,391.0 cpm and 4,234.0 cpm. Moreover, the “effect on [3H]thymidine incorporation and epidermal DNA content (in words)” value (Example 4, s.c., dose range 0.125-5 mg/kg) is “inhibited [^3H] thymidine incorporation and epidermal DNA content over the dose range with no apparent nadir or over stimulation”.
Take `C[C@]12CCCCC1=C[C@H](O)[C@@H]1[C@@H]2CC[C@]2(C)C(=O)[C@H](F)C[C@@H]12` [7β-hydroxy-16α-fluoro-5-androsten-17-one, 16α-fluoro-7β-hydroxy-5-androsten-17-one]: the “cpm/μg DNA (group average ±)” value reads like this: (Example 5, 1 mg/kg s.c. 1 h before topical TPA 2 μg, 20 h) 283.4 ± 35.3 cpm/μg DNA; (Example 5, 1.75 mg/kg s.c. 1 h before topical TPA 2 μg, 20 h) 156.6 ± 17.0 cpm/μg DNA; (Example 5, 2.5 mg/kg s.c. 1 h before topical TPA 2 μg, 20 h) 480.5 ± 117.6 cpm/μg DNA; (Example 5, 3.75 mg/kg s.c. 1 h before topical TPA 2 μg, 20 h) 485.4 ± 115.3 cpm/μg DNA; (Example 5, 5 mg/kg s.c. 1 h before topical TPA 2 μg, 20 h) 653.7 ± 61.0 cpm/μg DNA. The corrected cpm is 4,501.0 cpm and 3,230.0 cpm under setting [6]; 1,445.0 cpm and 1,534.0 cpm under setting [7]; 3,814.0 cpm and 5,861.0 cpm under setting [8]; 4,706.0 cpm and 2,585.0 cpm under setting [9]; 6,132.0 cpm and 3,908.0 cpm under setting [10]. In addition, the “cpm/μg DNA” value reads like this: under setting [6], 308.3 cpm/μg DNA and 258.4 cpm/μg DNA; under setting [7], 144.5 cpm/μg DNA and 168.6 cpm/μg DNA; under setting [8], 397.3 cpm/μg DNA and 563.6 cpm/μg DNA; under setting [9], 567.0 cpm/μg DNA and 403.9 cpm/μg DNA; under setting [10], 696.8 cpm/μg DNA and 610.6 cpm/μg DNA. Moreover, the “μg DNA” value is, setting by setting: under setting [6], 14.6 µg and 12.5 µg; under setting [7], 10.0 µg and 9.1 µg; under setting [8], 9.6 µg and 10.4 µg; under setting [9], 8.3 µg and 6.4 µg; under setting [10], 8.8 µg and 6.4 µg. Besides, the cpm is, setting by setting: (Example 5, 1 mg/kg s.c. 1 h before topical TPA 2 μg, female CD-1 mice, 20 h, 1 mg/kg) 4,527.0 cpm and 3,256.0 cpm; under setting [7], 1,471.0 cpm and 1,560.0 cpm; under setting [8], 3,840.0 cpm and 5,887.0 cpm; under setting [9], 4,732.0 cpm and 2,611.0 cpm; under setting [10], 6,158.0 cpm and 3,934.0 cpm. In addition, the “activity compared with 16α-fluoro-5-androsten-17-one (in words)” value (Example 5, s.c.) was “much more active”. Further, the “dose producing an overstimulation of [3H]thymidine incorporation” value (Example 5, s.c.) is on record as 2.5 mg/kg.
